After the bases stand the sugars from the 5' end (letter, count) and the backbone: PS all phosphorothioate, else s phosphorothioate and o phosphodiester by linkage. Methylation of C is not given here. e = 2'-O-(2-methoxyethyl) (MOE); k = constrained ethyl (cEt); d = 2'-deoxy (DNA); m = 2'-O-methyl

This is an account of results in the OligoGym collection.

The target in this data set is HSD17B13. As to conditions: ASO, HepaRG.

Consider GCATACTTATTAAGTA (sugars k3 d10 k3, PS), for which, under “1 µM”, the target mRNA inhibition is 32%.

With TATTATGAGGATCTGG (sugars k3 d10 k3, PS), for the setting “1 µM”, the target mRNA inhibition stood at 44%.

Regarding GTCTAAATTATTGCCT (sugars k3 d10 k3, PS), the target mRNA inhibition (1 µM) was found to be 45%.

TTTAGCAGCTTGGAAG (sugars k3 d10 k3, PS): the target mRNA inhibition (1 µM) was 43%.

Turning to TTCTGTGGCATGGCTA (sugars k3 d10 k3, PS), the target mRNA inhibition by setting is: (0.02 µM) 0%; (0.078 µM) 0%; (0.313 µM) 34%; (1 µM) 78%; (1.25 µM) 67%; (5 µM) 91%.

ACACTAATGAATCATG (sugars k3 d10 k3, PS) yielded a target mRNA inhibition (1 µM) of 7%.

For the setting “1 µM”, TGAGATAAAGCTGCCT (sugars k3 d10 k3, PS) returned a target mRNA inhibition of 63%.

Sequence GAGTTGCACCGTTTTG (sugars k3 d10 k3, PS) had a target mRNA inhibition (1 µM) of 48%.

For the sequence CCACTATCAGAACAGT (sugars k3 d10 k3, PS), the target mRNA inhibition (1 µM) was found to be 31%.

GTGAACCCAGTATTCA (sugars k3 d10 k3, PS): where the note is “1 µM”, the target mRNA inhibition amounted to 1%.

For GTGTAAGCTGAGAGTT (sugars k3 d10 k3, PS), under “1 µM”, the target mRNA inhibition was 60%.

With AAAATAGAGTCGGTCA (sugars k3 d10 k3, PS), the target mRNA inhibition amounted to 28% (0.02 µM); 27% (0.078 µM); 51% (0.313 µM); 71% (1 µM); 69% (1.25 µM); 91% (5 µM).

TTCCATCTATCAGACT (sugars k3 d10 k3, PS) returned a target mRNA inhibition (1 µM) of 33%.

Consider TGCAGTTATTAGAAGT (sugars k3 d10 k3, PS), for which the target mRNA inhibition (1 µM) was found to be 46%.

Consider GCCTTGAATAGCAAGC (sugars k3 d10 k3, PS), for which the target mRNA inhibition (1 µM) was 32%.

AATATAGCCCTTTCCC (sugars k3 d10 k3, PS) registered a target mRNA inhibition (1 µM) of 44%.

Under “1 µM”, “AGGTUGAGATAAAGCT (sugars k3 d1 m1 d8 k3, PS)” showed a target mRNA inhibition of 58%.

As for “TATTCTGTGGCATGGC (sugars k3 d9 k3 e1, PS)”, the target mRNA inhibition is 10% (0.02 µM); 0% (0.078 µM); 21% (0.313 µM); 74% (1 µM); 55% (1.25 µM); 68% (5 µM).

CATCTGTCTCCAATAC (sugars k3 d10 k3, PS): the target mRNA inhibition (1 µM) came to 32%.

The sequence GGGAATGCTCATATTA (sugars k3 d10 k3, PS) returned a target mRNA inhibition (1 µM) of 18%.

On to GCGGCAAATTTGCTGG (sugars k3 d10 k3, PS), for which the target mRNA inhibition (1 µM) was determined as 0%.

“GTCTAAACATCTCTGG (sugars k3 d1 m1 d8 k3, PS)” had a target mRNA inhibition (1 µM) of 47%.

For the setting “1 µM”, TTTACTCACTTCTGGT (sugars k3 d10 k3, PS) displayed a target mRNA inhibition of 30%.

Turning to CAAGACATTCTAGCCT (sugars k3 d10 k3, PS), the target mRNA inhibition (1 µM) turned out to be 58%.

For TCAAAGTTTTGGGACC (sugars k3 d10 k3, PS), the target mRNA inhibition (1 µM) stood at 42%.

Turning to TCGATCCTATATACAT (sugars k3 d10 k3, PS), the target mRNA inhibition (1 µM) turned out to be 40%.

On to AATTTTCAGATCCCGT (sugars k3 d10 k3, PS), for which the target mRNA inhibition (1 µM) was 74%.

On to AAACTAGTGGTAATGG (sugars k3 d10 k3, PS), for which the target mRNA inhibition (1 µM) amounted to 47%.

On to CTGGTTTCATAACCTA (sugars k3 d10 k3, PS), for which the target mRNA inhibition (1 µM) came out at 9%.

With GAGAGCGATAGATCTC (sugars k3 d10 k3, PS), the target mRNA inhibition (1 µM) was determined as 1%.

“GCTGTAAGAGTCAGTA (sugars k3 d9 k3 e1, PS)” had a target mRNA inhibition (1 µM) of 52%.

In the case of CCAGGTTGAGATAAAG (sugars k3 d10 k3, PS), for the setting “1 µM”, the target mRNA inhibition was found to be 49%.

TTACAGCATCAAGACA (sugars k3 d10 k3, PS) registered a target mRNA inhibition (1 µM) of 46%.

AGGAAATATAGAGGGT (sugars k3 d10 k3, PS) gave a target mRNA inhibition (1 µM) of 54%.

Regarding AGTTATTAGAAGTCAG (sugars k3 d10 k3, PS), the target mRNA inhibition (1 µM) was 54%.

With CTTCATCCTTGGTGCT (sugars k3 d10 k3, PS), the target mRNA inhibition (1 µM) was 30%.

Consider “GTTGATATTCTGTGGC (sugars kkdddddddddkekek, PS)”, for which, for the setting “1 µM”, the target mRNA inhibition was found to be 69%.

For CTAATGAATCATGATT (sugars k3 d10 k3, PS), the target mRNA inhibition (1 µM) was 20%.

AAAGTCAGTATCCCCT (sugars k3 d10 k3, PS): the target mRNA inhibition was determined as 7% (0.02 µM); 21% (0.078 µM); 40% (0.313 µM); 77% (1 µM); 79% (1.25 µM); 82% (5 µM).

With CATTAGATGGTAAGGA (sugars k3 d10 k3, PS), the target mRNA inhibition (1 µM) worked out at 32%.

The sequence CACCATGACAGCTTCA (sugars k3 d10 k3, PS) yielded a target mRNA inhibition (1 µM) of 65%.

“AATATTGAGGCACTGG (sugars kkdddddddddkekek, PS)” had a target mRNA inhibition (1 µM) of 29%.

On to “CTTGATCTCTTAGCTG (sugars kkdddddddddkekek, PS)”, for which, under “1 µM”, the target mRNA inhibition worked out at 49%.

For the sequence AATGTATCTTATAAGA (sugars k3 d10 k3, PS), the target mRNA inhibition (1 µM) was found to be 10%.

“TCCCAACCAAACTTCC (sugars k3 d1 m1 d8 k3, PS)” displayed a target mRNA inhibition (1 µM) of 43%.

Regarding GATTTGAAGGTTAGAT (sugars k3 d10 k3, PS), the target mRNA inhibition (1 µM) is 47%.

Take GTTTAGATTGCATAAG (sugars k3 d10 k3, PS): the target mRNA inhibition (1 µM) amounted to 46%.

For the setting “1 µM”, AAAAGGTTATCATGGG (sugars k3 d10 k3, PS) yielded a target mRNA inhibition of 49%.

As to AGGATACCTGAAAAGC (sugars k3 d10 k3, PS), the target mRNA inhibition is, setting by setting: (0.02 µM) 13%; (0.078 µM) 23%; (0.313 µM) 54%; (1 µM) 81%; (1.25 µM) 70%; (5 µM) 88%.

On to TATTGATATACGATGG (sugars k3 d10 k3, PS), for which the target mRNA inhibition (1 µM) worked out at 16%.

In the case of AGGATAGTCCATGCAA (sugars k3 d10 k3, PS), where the note is “1 µM”, the target mRNA inhibition stood at 64%.

Sequence “AATGCTACTTGAACAG (sugars k3 d9 k3 e1, PS)” showed a target mRNA inhibition (1 µM) of 50%.

In turn, CTTCATAGTGGACTTC (sugars k3 d10 k3, PS) showed a target mRNA inhibition (0.02 µM) of 3%; a target mRNA inhibition (0.078 µM) of 4%; a target mRNA inhibition (0.313 µM) of 28%; a target mRNA inhibition (1 µM) of 79%; a target mRNA inhibition (1.25 µM) of 66%; a target mRNA inhibition (5 µM) of 93%.

For the sequence TTCATAGGGAGACCAT (sugars k3 d10 k3, PS), where the note is “1 µM”, the target mRNA inhibition was 65%.

For TCTCTTGGGTCCATTG (sugars k3 d10 k3, PS), the target mRNA inhibition (1 µM) turned out to be 63%.

Take TGGTAGCTTGCTCACT (sugars k3 d10 k3, PS): the target mRNA inhibition by setting is: (0.02 µM) 16%; (0.078 µM) 31%; (0.313 µM) 48%; (1 µM) 71%; (1.25 µM) 72%; (5 µM) 81%.

In turn, GTGGCATGGCTACAGA (sugars k3 d10 k3, PS) yielded a target mRNA inhibition (1 µM) of 56%.

“CAGGGTGGTAACGGTG (sugars k3 d1 m1 d8 k3, PS)” gave a target mRNA inhibition (1 µM) of 29%.

Regarding GGCTATAGTAATTGCT (sugars k3 d10 k3, PS), the target mRNA inhibition (1 µM) was 13%.

TATAACTGAGCTAGAC (sugars k3 d10 k3, PS): under “1 µM”, the target mRNA inhibition came to 53%.

With “ATCCTATATACATCCA (sugars k3 d9 k3 e1, PS)”, the target mRNA inhibition is, setting by setting: (0.02 µM) 0%; (0.078 µM) 7%; (0.313 µM) 39%; (1 µM) 75%; (1.25 µM) 55%; (5 µM) 76%.

For the setting “1 µM”, CCTCAAATGTCTTGGT (sugars k3 d10 k3, PS) showed a target mRNA inhibition of 6%.

Take CTTATGAAGTTAGTAT (sugars k3 d10 k3, PS): for the setting “1 µM”, the target mRNA inhibition stood at 43%.

ATTAATGCCACCCTAC (sugars k3 d10 k3, PS): the target mRNA inhibition (1 µM) worked out at 6%.

On to ATATTGATATACGATG (sugars k3 d10 k3, PS), for which, for the setting “1 µM”, the target mRNA inhibition was determined as 0%.

For TAAGTAGATGGTAAGT (sugars k3 d10 k3, PS), the target mRNA inhibition amounted to 5% (0.02 µM); 10% (0.078 µM); 34% (0.313 µM); 74% (1 µM); 72% (1.25 µM); 85% (5 µM).

For the setting “1 µM”, GCACCCCATGGATCTA (sugars k3 d10 k3, PS) displayed a target mRNA inhibition of 35%.

AACTAGAACTCCCAAC (sugars k3 d10 k3, PS) had a target mRNA inhibition (1 µM) of 0%.

CCTTCATCTAACTAAC (sugars k3 d10 k3, PS) came in with a target mRNA inhibition (1 µM) of 30%.

Sequence “TTTAAAATAGAGTCGG (sugars kkdddddddddkekek, PS)” displayed a target mRNA inhibition (1 µM) of 43%.

Consider “GAAATTGATACACCAA (sugars k3 d9 k3 e1, PS)”, for which the target mRNA inhibition (1 µM) worked out at 64%.

For the setting “1 µM”, “GGTCACCTTTCATAAT (sugars kkdddddddddkekek, PS)” returned a target mRNA inhibition of 52%.

“CAGGTTGAGATAAAGC (sugars k3 d9 k3 e1, PS)” registered a target mRNA inhibition (1 µM) of 63%.

On to CAGGTAATTAATCTTG (sugars k3 d10 k3, PS), for which the target mRNA inhibition (1 µM) came to 54%.

As for AACAGTCTTAAACCTT (sugars k3 d10 k3, PS), under “1 µM”, the target mRNA inhibition was 82%.
